These results are taken from ChEMBL document CHEMBL3351879, “Isolation, structure elucidation, relative LC-MS response, and in vitro toxicity of azaspiracids from the dinoflagellate Azadinium spinosum” (J Nat Prod, 2014).

Holding throughout (assay type): functional, cell-based
Assay [1] is described as follows: Cytotoxicity against human Jurkat E6-1 cells assessed as cell viability after 48 hrs by MTS assay.
Assay [2] can be described thus: Cytotoxicity against human Jurkat E6-1 cells assessed as cell viability after 72 hrs by MTS assay.
The nature of assay [3]: Cytotoxicity against human Jurkat E6-1 cells assessed as cell viability after 24 hrs by MTS assay.

Take `C=C(C[C@@]12C[C@@H](C)C[C@@H](O1)[C@H]1O[C@]3(C[C@H]1O2)NC[C@H](C)C[C@@H]3C)[C@H]1O[C@@](O)([C@H](O)[C@@H]2CC[C@@H](C/C=C/CC/C=C/CCC(=O)O)O2)[C@H](C)C[C@@H]1C`: the 50% effective concentration (EC50) was found to be 5.9 nM in assay [1], 6.4 nM in assay [2] and 3.3 nM in assay [3].
For the molecule `C=C(C[C@@]12C[C@@H](C)C[C@@H](O1)[C@H]1O[C@]3(C[C@H]1O2)NC[C@H](C)C[C@@H]3C)[C@H]1O[C@@](O)([C@H](O)[C@@H]2C[C@H]3O[C@@]4(CC[C@]5(CC=C[C@@H](CCC(=O)O)O5)O4)[C@H](C)C[C@H]3O2)[C@H](C)C[C@@H]1C`, the EC50 in assay [1] is 0.18 nM; in assay [2] it was 0.2 nM; in assay [3], 0.23 nM.
`C=C(C[C@]12C[C@@H](C)C[C@H](O1)[C@H]1O[C@]3(C[C@H]1O2)NC[C@H](C)C[C@@H]3C)[C@H]1O[C@@](O)([C@H](O)[C@@H]2C[C@H]3O[C@@]4(CC[C@]5(CC=C[C@@H](/C=C/CCC(=O)O)O5)O4)[C@H](C)C[C@H]3O2)[C@H](C)C[C@@H]1C`: the 50% effective concentration (EC50) in assay [1] worked out at 1.1 nM; in assay [2], 1.3 nM; in assay [3] it was 0.96 nM.
